Experimental data taken from US8198456B2, “Dihydropyridine derivatives as useful as protein kinase inhibitors” (Bayer Intellectual Property GmbH, priority 2006, dated 2012).

target: T1, recombinant human c-MET kinase enzyme domain (Homo sapiens, UniProt P08581); experiment: c-MET receptor tyrosine kinase Homogeneous Time Resolved Fluorescence assay (HTRF); assay type: biochemical; settings: Biological Example 1 and/or Biological Example 2
T1 construct: Recombinant c-Met kinase domain (amino acids 960-1390); His (N); made in house; host or cells: baculovirus expression system (insect cells; SF21 is named only for the alternative format)
T1 sequence (P08581 960-1390): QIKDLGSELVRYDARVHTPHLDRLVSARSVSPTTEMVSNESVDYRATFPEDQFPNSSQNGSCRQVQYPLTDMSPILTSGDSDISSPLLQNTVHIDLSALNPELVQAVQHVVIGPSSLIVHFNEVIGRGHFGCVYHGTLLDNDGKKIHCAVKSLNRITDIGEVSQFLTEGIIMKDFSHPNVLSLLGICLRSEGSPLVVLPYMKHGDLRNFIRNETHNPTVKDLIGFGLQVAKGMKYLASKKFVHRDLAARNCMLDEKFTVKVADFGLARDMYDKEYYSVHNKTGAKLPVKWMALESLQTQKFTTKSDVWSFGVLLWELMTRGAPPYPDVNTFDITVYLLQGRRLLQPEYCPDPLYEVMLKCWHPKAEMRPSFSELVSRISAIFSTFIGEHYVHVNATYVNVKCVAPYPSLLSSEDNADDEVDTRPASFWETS
Method in brief: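 His-tagged c-Met kinase domain (aa 960-1390, baculovirus) phosphorylated biotinylated poly-Glu-Tyr (37 nM) with 20 μM ATP in HEPES pH 7.4, Mg/Mn, DTT, 1% DMSO, 20 min at ambient temperature, EDTA-stopped. HTRF read (PT66-Eu/streptavidin-XL665, 665/620 nm ratio) after 4 h; IC50 from eight 1:3.16 dilutions.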

SMILES | IC50 [nM]
CC1=C(C#N)C(c2ccc3[nH]nc(-c4cn[nH]c4)c3c2)C(C#N)=C(C)N1 [compound 173, 1,4-dihydro-2,6-dimethyl-4-[3-(1H-pyrazol-4-yl)-1H-indazol-5-yl]-3,5-pyridinedicarbonitrile] | < 100
CC1=C(C#N)C(c2ccc3[nH]nc(-c4cnn(C)c4)c3c2)C(C#N)=C(C)N1 [compound 174, 1,4-dihydro-2,6-dimethyl-4-[3-(1-methyl-1H-pyrazol-4-yl)-1H-indazol-5-yl]-3,5-pyridinedicarbonitrile] | < 100
CC1=C(C#N)C(c2ccc3[nH]nc(-c4ccon4)c3c2)C(C#N)=C(C)N1 [compound 175, 1,4-dihydro-4-[3-(3-isoxazolyl)-1H-indazol-5-yl]-2,6-dimethyl-3,5-pyridinedicarbonitrile] | < 100
CC1=C(C#N)C(c2ccc3[nH]nc(O)c3c2)C(C#N)=C(C)N1 [compound 176, 1,4-dihydro-4-(3-hydroxy-1H-indazol-5-yl)-2,6-dimethyl-3,5-pyridinedicarbonitrile] | 500 to 2500
CC1=C(C#N)C(c2ccc3[nH]nc(-c4cnco4)c3c2)C(C#N)=C(C)N1 [compound 177, 1,4-dihydro-2,6-dimethyl-4-[3-(5-oxazolyl)-1H-indazol-5-yl]-3,5-pyridinedicarbonitrile] | < 100
CC1=C(C#N)C(c2ccc3[nH]nc(-c4cccs4)c3c2)C(C#N)=C(C)N1 [compound 178, 1,4-dihydro-2,6-dimethyl-4-[3-(2-thienyl)-1H-indazol-5-yl]-3,5-pyridinedicarbonitrile] | < 100
CNC(=O)c1cccc(C2C(C#N)=C(C)NC(C)=C2C#N)n1 [compound 189, 3′,5′-dicyano-1′,4′-dihydro-N,2′,6′-trimethyl-[2,4′-bipyridine]-6-carboxamide] | 500 to 2500
CC1=C(C#N)C(c2cccc(C(=O)Nc3cccnc3)n2)C(C#N)=C(C)N1 [compound 190, 3′,5′-dicyano-1′,4′-dihydro-2′,6′-dimethyl-N-3-pyridinyl-[2,4′-bipyridine]-6-carboxamide] | 100 to 500
CC1=C(C#N)C(c2cccc(C(=O)NCCCn3ccnc3)n2)C(C#N)=C(C)N1 [compound 191, 3′,5′-dicyano-1′,4′-dihydro-N-[3-(1H-imidazol-1-yl)propyl]-2′,6′-dimethyl-[2,4′-bipyridine]-6-carboxamide] | 100 to 500
CC1=C(C#N)C(c2cccc(C(=O)Nc3ccccn3)n2)C(C#N)=C(C)N1 [compound 192, 3′,5′-dicyano-1′,4′-dihydro-2′,6′-dimethyl-N-2-pyridinyl-[2,4′-bipyridine]-6-carboxamide] | < 100
CC1=C(C#N)C(c2cnc3[nH]ncc3c2)C(C#N)=C(C)N1 [compound 204, 1,4-dihydro-2,6-dimethyl-4-(1H-pyrazolo[3,4-b]pyridin-5-yl)-3,5-pyridinedicarbonitrile] | < 100
COC(=O)c1cccc(C2C(C#N)=C(C)NC(c3ccccc3)=C2C#N)c1 (stereo not drawn) [compound 219, 3-(3,5-dicyano-1,4-dihydro-2-methyl-6-phenyl-4-pyridinyl)-benzoic acid, methyl ester] | < 100
COC(=O)c1cccc(C2C(C#N)=C(C)NC(C3CCCN(C(C)=O)C3)=C2C#N)c1 (stereo not drawn) [compound 229, 3-[2-(1-acetyl-3-piperidinyl)-3,5-dicyano-1,4-dihydro-6-methyl-4-pyridinyl]-benzoic acid, methyl ester] | 100 to 500
COC(=O)c1cccc(C2C(C#N)=C(C)NC(C3CCCN(C(N)=O)C3)=C2C#N)c1 (stereo not drawn) [compound 230, 3-[2-[1-(aminocarbonyl)-3-piperidinyl]-3,5-dicyano-1,4-dihydro-6-methyl-4-pyridinyl]-benzoic acid, methyl ester] | 100 to 500
COC(=O)c1cccc(C2C(C#N)=C(C)NC(c3cccc([N+](=O)[O-])c3)=C2C#N)c1 (stereo not drawn) [compound 232, 3-[3,5-dicyano-1,4-dihydro-2-methyl-6-(3-nitrophenyl)-4-pyridinyl]-benzoic acid, methyl ester] | 500 to 2500
COC(=O)c1cccc(C2C(C#N)=C(C)NC(c3ccc([N+](=O)[O-])cc3)=C2C#N)c1 (stereo not drawn) [compound 233, 3-[3,5-dicyano-1,4-dihydro-2-methyl-6-(4-nitrophenyl)-4-pyridinyl]-benzoic acid, methyl ester] | 500 to 2500
COC(=O)c1cccc(C2C(C#N)=C(C)NC(c3ccc(O)cc3)=C2C#N)c1 (stereo not drawn) [compound 234, 3-[3,5-dicyano-1,4-dihydro-2-(4-hydroxyphenyl)-6-methyl-4-pyridinyl]-benzoic acid, methyl ester] | 100 to 500
COC(=O)c1cccc(C2C(C#N)=C(C)NC(c3cccc(N)c3)=C2C#N)c1 (stereo not drawn) [compound 235, 3-[2-(3-aminophenyl)-3,5-dicyano-1,4-dihydro-6-methyl-4-pyridinyl]-benzoic acid, methyl ester] | 100 to 500
COC(=O)c1cccc(C2C(C#N)=C(C)NC(c3ccc(N)cc3)=C2C#N)c1 (stereo not drawn) [compound 236, 3-[2-(4-aminophenyl)-3,5-dicyano-1,4-dihydro-6-methyl-4-pyridinyl]-benzoic acid, methyl ester] | 100 to 500
CNC(=O)c1cccc(C2C(C#N)=C(C)NC(c3ccc(N)cc3)=C2C#N)c1 (stereo not drawn) [compound 238, 3-[2-(4-aminophenyl)-3,5-dicyano-1,4-dihydro-6-methyl-4-pyridinyl]-N-methyl-benzamide] | 500 to 2500
CNC(=O)c1cccc(C2C(C#N)=C(C)NC(c3ccc(O)cc3)=C2C#N)c1 (stereo not drawn) [compound 239, 3-[3,5-dicyano-1,4-dihydro-2-(4-hydroxyphenyl)-6-methyl-4-pyridinyl]-N-methyl-benzamide] | 500 to 2500
CNC(=O)c1cccc(C2C(C#N)=C(C)NC(c3ccccc3)=C2C#N)c1 (stereo not drawn) [compound 240, 3-(3,5-dicyano-1,4-dihydro-2-methyl-6-phenyl-4-pyridinyl)-N-methyl-benzamide] | 500 to 2500
CC1=C(C#N)C(c2cccc(C(=O)NCCCn3ccnc3)c2)C(C#N)=C(c2cccc(N)c2)N1 (stereo not drawn) [compound 246, 3-[2-(3-aminophenyl)-3,5-dicyano-1,4-dihydro-6-methyl-4-pyridinyl]-N-[3-(1H-imidazol-1-yl)propyl]-benzamide] | 100 to 500
CC1=C(C#N)C(c2ccc3[nH]ncc3c2)C(C#N)=C(c2ccccc2)N1 (stereo not drawn) [compound 249, 1,4-dihydro-4-(1H-indazol-5-yl)-2-methyl-6-phenyl-3,5-pyridinedicarbonitrile] | < 100
CC1=C(C#N)C(c2ccc3[nH]ncc3c2)C(C#N)=C(c2cccc([N+](=O)[O-])c2)N1 (stereo not drawn) [compound 250, 1,4-dihydro-4-(1H-indazol-5-yl)-2-methyl-6-(3-nitrophenyl)-3,5-pyridinedicarbonitrile] | < 100
CC1=C(C#N)C(c2ccc3[nH]ncc3c2)C(C#N)=C(C2CCCN(C(=O)OCc3ccccc3)C2)N1 (stereo not drawn) [compound 251, 3-[3,5-dicyano-1,4-dihydro-4-(1H-indazol-5-yl)-6-methyl-2-pyridinyl]-1-piperidinecarboxylic acid phenylmethyl ester] | 500 to 2500
CC1=C(C#N)C(c2ccc3[nH]ncc3c2)C(C#N)=C(c2cccc(N)c2)N1 (stereo not drawn) [compound 252, 2-(3-aminophenyl)-1,4-dihydro-4-(1H-indazol-5-yl)-6-methyl-3,5-pyridinedicarbonitrile] | < 100
